Measured values as given in ChEMBL document CHEMBL1201862, “PubChem BioAssay data set” (2004).
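Dose response: 5 concentrations. Exposure: 48 h. Format: 96-well plates. Endpoint: linear interpolation; highest concentration if not reached. GI50: concentration for 50% inhibition of growth.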 The source made the active and inactive calls. Cut-off read from the data, not from the text of the source: active = GI50 up to about 1.1 µM and inactive = higher.

Assays:
Test in all cases: NCI tumour cell line growth inhibition, 48 h
PC-3 = tested on: PC-3
SK-MEL-5 = tested on: SK-MEL-5
NCI-H23 = tested on: NCI-H23
Malme-3M = tested on: Malme-3M
HT-29 = tested on: HT-29
NCI-H226 = tested on: NCI-H226
RPMI-8226 = tested on: RPMI-8226
T47D = tested on: T47D
SW-620 = tested on: SW-620
SNB-19 = tested on: SNB-19
NCI-H460 = tested on: NCI-H460
NCI/ADR-RES = tested on: NCI/ADR-RES
SR = tested on: SR
SK-MEL-2 = tested on: SK-MEL-2
HOP-92 = tested on: HOP-92
COLO 205 = tested on: COLO 205
HCT-15 = tested on: HCT-15
IGROV-1 = tested on: IGROV-1
CCRF-CEM = tested on: CCRF-CEM
UACC-257 = tested on: UACC-257
Hs-578T = tested on: Hs-578T
MCF7 = tested on: MCF7
M14 = tested on: M14
OVCAR-8 = tested on: OVCAR-8
BT-549 = tested on: BT-549
OVCAR-5 = tested on: OVCAR-5
DU-145 = tested on: DU-145
CAKI-1 = tested on: CAKI-1
MDA-MB-435 = tested on: MDA-MB-435
SK-OV-3 = tested on: SK-OV-3
HL-60 = tested on: HL-60
MOLT-4 = tested on: MOLT-4
K562 = tested on: K562
KM12 = tested on: KM12
ACHN = tested on: ACHN
SN12C = tested on: SN12C
A549 = tested on: A549
SF-268 = tested on: SF-268
EKVX = tested on: EKVX
HCT-116 = tested on: HCT-116
RXF 393 = tested on: RXF 393
MDA-MB-231 = tested on: MDA-MB-231
HCC 2998 = tested on: HCC 2998
SK-MEL-28 = tested on: SK-MEL-28
NCI-H522 = tested on: NCI-H522
UACC-62 = tested on: UACC-62
A498 = tested on: A498
HOP-62 = tested on: HOP-62
SNB-75 = tested on: SNB-75
SF-295 = tested on: SF-295
OVCAR-3 = tested on: OVCAR-3
MDA-N = tested on: MDA-N
SF-539 = tested on: SF-539
786-0 = tested on: 786-0
U-251 = tested on: U-251
LOX IMVI = tested on: LOX IMVI
TK-10 = tested on: TK-10
OVCAR-4 = tested on: OVCAR-4
UO-31 = tested on: UO-31

With `CC(C)[Si]1(C(C)C)OCC2OC(n3cnc4c(N)ncnc43)C(N)C2O[Si](C(C)C)(C(C)C)O1` (centres undefined) the GI50 (PC-3) was 3.16 µM (inactive), the GI50 (SK-MEL-5) was 2.06 µM (inactive) and the GI50 (NCI-H23) was 9.16 µM (inactive). For the same compound, the GI50 (Malme-3M) was 17.8 µM (inactive), the GI50 (HT-29) was 4.6 µM (inactive) and the GI50 (NCI-H226) was 9.66 µM (inactive). The GI50 (RPMI-8226) was 2.22 µM (inactive), the GI50 (T47D) was 8.15 µM (inactive) and the GI50 (SW-620) was 6.41 µM (inactive). For the same compound, the GI50 (SNB-19) was 4.88 µM (inactive), the GI50 (NCI-H460) was 4.07 µM (inactive) and the GI50 (NCI/ADR-RES) was 5.21 µM (inactive). The GI50 (SR) was 2.42 µM (inactive), the GI50 (SK-MEL-2) was 6.22 µM (inactive) and the GI50 (HOP-92) was 11.8 µM (inactive). For the same compound, the GI50 (COLO 205) was 5.68 µM (inactive), the GI50 (HCT-15) was 6.9 µM and the GI50 (IGROV-1) was 7.33 µM (inactive). The GI50 (CCRF-CEM) was 9.29 µM (inactive), the GI50 (UACC-257) was 5.73 µM (inactive) and the GI50 (Hs-578T) was 11.8 µM (inactive). For the same compound, the GI50 (MCF7) was 2.55 µM (inactive), the GI50 (M14) was 8.45 µM (inactive) and the GI50 (OVCAR-8) was 8.24 µM (inactive). The GI50 (BT-549) was 6.41 µM (inactive), the GI50 (OVCAR-5) was 16.8 µM (inactive) and the GI50 (DU-145) was 11.9 µM (inactive). The GI50 (CAKI-1) was 11 µM (inactive), the GI50 (MDA-MB-435) was 6.75 µM (inactive) and the GI50 (SK-OV-3) was 24 µM (inactive). The GI50 (HL-60) was 3.78 µM (inactive), the GI50 (MOLT-4) was 2.08 µM (inactive) and the GI50 (K562) was 3.51 µM (inactive). The GI50 (KM12) was 4.1 µM (inactive), the GI50 (ACHN) was 3.44 µM (inactive) and the GI50 (SN12C) was 10.1 µM (inactive). For the same compound, the GI50 (A549) was 5.58 µM (inactive), the GI50 (SF-268) was 12 µM (inactive) and the GI50 (EKVX) was 17.7 µM (inactive). The GI50 (HCT-116) was 4.14 µM (inactive), the GI50 (RXF 393) was 8.97 µM (inactive) and the GI50 (MDA-MB-231) was 13.7 µM (inactive). The GI50 (HCC 2998) was 4.79 µM (inactive), the GI50 (SK-MEL-28) was 25.9 µM (inactive) and the GI50 (NCI-H522) was 8.04 µM (inactive). For the same compound, the GI50 (UACC-62) was 10.1 µM (inactive), the GI50 (A498) was 13.9 µM (inactive) and the GI50 (HOP-62) was 17.2 µM (inactive). The GI50 (SNB-75) was 4.69 µM (inactive), the GI50 (SF-295) was 3.65 µM (inactive) and the GI50 (OVCAR-3) was 5.22 µM (inactive). The GI50 (MDA-N) was 6.32 µM (inactive), the GI50 (SF-539) was 11.6 µM (inactive) and the GI50 (786-0) was 5.11 µM (inactive). The GI50 (U-251) was 8.32 µM (inactive), the GI50 (LOX IMVI) was 5.75 µM (inactive) and the GI50 (TK-10) was 10.1 µM (inactive). The GI50 (OVCAR-4) was 8.09 µM (inactive) and the GI50 (UO-31) was 3.47 µM (inactive).
